± gives the standard deviation of the averaged measurements.
test system: HCI-023 (organoid from a triple-negative breast cancer xenograft); assay: CTG-3D luminescence at 96 h relative to day-0 seeding control (ratio to day 0); higher = more growth / less cytotoxicity; PDxO 3D drug screen, 96 h, CTG-3D normalised to day-0 seeding control.; conditions: 12.5 pM; days in culture: 111

Structure (SMILES)	CTG-3D luminescence at 96 h
COc1cc2c(Oc3ccc4[nH]c(C)cc4c3F)ncnc2cc1OCCCN1CCCC1 [cediranib]	1.46
CC(C)n1nc(-c2ccc3oc(N)nc3c2)c2c(N)ncnc21 [sapanisertib]	1.32
Cc1cc(Nc2ncnc3ccc(NC4=NC(C)(C)CO4)cc23)ccc1Oc1ccn2ncnc2c1 [tucatinib]	1.15
C[C@H](NC(=O)CCC(F)(F)F)C(=O)N[C@@H]1C(=O)N(CCO)c2ncccc2-c2ccccc21 [crenigacestat]	1.05
C[C@]12CC[C@@H]3c4ccc(O)cc4C[C@@H](CCCCCCCCC[S+]([O-])CCCC(F)(F)C(F)(F)F)[C@H]3[C@@H]1CC[C@@H]2O (some centres not stated) [fulvestrant]	1.5
O=C(c1ccc(F)c(F)c1Nc1ccc(I)cc1F)N1CC(O)([C@@H]2CCCCN2)C1 [cobimetinib]	1.18
O=C(/C=C/c1cccnc1)NCCCCC1CCN(C(=O)c2ccccc2)CC1 [FK866]	1.12
CS(=O)(=O)c1ccc(C(=O)Nc2ccc(Cl)c(-c3ccccn3)c2)c(Cl)c1 [vismodegib]	1.92
C=CCn1c(=O)c2cnc(Nc3ccc(N4CCN(C)CC4)cc3)nc2n1-c1cccc(C(C)(C)O)n1 [adavosertib]	1.63

same assay, conditions: 12.5 pM; days in culture: 128

Structure (SMILES)	CTG-3D luminescence at 96 h
COc1cc2c(Oc3ccc4[nH]c(C)cc4c3F)ncnc2cc1OCCCN1CCCC1 [cediranib]	1.2 ± 0.11
CC(C)n1nc(-c2ccc3oc(N)nc3c2)c2c(N)ncnc21 [sapanisertib]	1.42 ± 0.12
Cc1cc(Nc2ncnc3ccc(NC4=NC(C)(C)CO4)cc23)ccc1Oc1ccn2ncnc2c1 [tucatinib]	1.78 ± 0.11
C[C@H](NC(=O)CCC(F)(F)F)C(=O)N[C@@H]1C(=O)N(CCO)c2ncccc2-c2ccccc21 [crenigacestat]	1.4 ± 0.13
C[C@]12CC[C@@H]3c4ccc(O)cc4C[C@@H](CCCCCCCCC[S+]([O-])CCCC(F)(F)C(F)(F)F)[C@H]3[C@@H]1CC[C@@H]2O (some centres not stated) [fulvestrant]	1.83 ± 0.07
O=C(c1ccc(F)c(F)c1Nc1ccc(I)cc1F)N1CC(O)([C@@H]2CCCCN2)C1 [cobimetinib]	1.67 ± 0.072
O=C(/C=C/c1cccnc1)NCCCCC1CCN(C(=O)c2ccccc2)CC1 [FK866]	1.73 ± 0.35
CS(=O)(=O)c1ccc(C(=O)Nc2ccc(Cl)c(-c3ccccn3)c2)c(Cl)c1 [vismodegib]	1.29 ± 0.17
C=CCn1c(=O)c2cnc(Nc3ccc(N4CCN(C)CC4)cc3)nc2n1-c1cccc(C(C)(C)O)n1 [adavosertib]	1.68 ± 0.18

same assay, conditions: 0.00025 µM; days in culture: 111

Structure (SMILES)	CTG-3D luminescence at 96 h
COc1cc2c(Oc3ccc4[nH]c(C)cc4c3F)ncnc2cc1OCCCN1CCCC1 [cediranib]	1.23
CC(C)n1nc(-c2ccc3oc(N)nc3c2)c2c(N)ncnc21 [sapanisertib]	1.65
Cc1cc(Nc2ncnc3ccc(NC4=NC(C)(C)CO4)cc23)ccc1Oc1ccn2ncnc2c1 [tucatinib]	1.13
C[C@H](NC(=O)CCC(F)(F)F)C(=O)N[C@@H]1C(=O)N(CCO)c2ncccc2-c2ccccc21 [crenigacestat]	1.15
C[C@]12CC[C@@H]3c4ccc(O)cc4C[C@@H](CCCCCCCCC[S+]([O-])CCCC(F)(F)C(F)(F)F)[C@H]3[C@@H]1CC[C@@H]2O (some centres not stated) [fulvestrant]	1.45
O=C(c1ccc(F)c(F)c1Nc1ccc(I)cc1F)N1CC(O)([C@@H]2CCCCN2)C1 [cobimetinib]	1.25
O=C(/C=C/c1cccnc1)NCCCCC1CCN(C(=O)c2ccccc2)CC1 [FK866]	1.65
CS(=O)(=O)c1ccc(C(=O)Nc2ccc(Cl)c(-c3ccccn3)c2)c(Cl)c1 [vismodegib]	1.62
C=CCn1c(=O)c2cnc(Nc3ccc(N4CCN(C)CC4)cc3)nc2n1-c1cccc(C(C)(C)O)n1 [adavosertib]	1.12

same assay, conditions: 0.00025 µM; days in culture: 128

Structure (SMILES)	CTG-3D luminescence at 96 h
COc1cc2c(Oc3ccc4[nH]c(C)cc4c3F)ncnc2cc1OCCCN1CCCC1 [cediranib]	1.51 ± 0.53
CC(C)n1nc(-c2ccc3oc(N)nc3c2)c2c(N)ncnc21 [sapanisertib]	1.44 ± 0.54
Cc1cc(Nc2ncnc3ccc(NC4=NC(C)(C)CO4)cc23)ccc1Oc1ccn2ncnc2c1 [tucatinib]	1.62 ± 0.14
C[C@H](NC(=O)CCC(F)(F)F)C(=O)N[C@@H]1C(=O)N(CCO)c2ncccc2-c2ccccc21 [crenigacestat]	1.35 ± 0.62
C[C@]12CC[C@@H]3c4ccc(O)cc4C[C@@H](CCCCCCCCC[S+]([O-])CCCC(F)(F)C(F)(F)F)[C@H]3[C@@H]1CC[C@@H]2O (some centres not stated) [fulvestrant]	1.54 ± 0.074
O=C(c1ccc(F)c(F)c1Nc1ccc(I)cc1F)N1CC(O)([C@@H]2CCCCN2)C1 [cobimetinib]	1.44 ± 0.4
O=C(/C=C/c1cccnc1)NCCCCC1CCN(C(=O)c2ccccc2)CC1 [FK866]	1.55 ± 0.36
CS(=O)(=O)c1ccc(C(=O)Nc2ccc(Cl)c(-c3ccccn3)c2)c(Cl)c1 [vismodegib]	1.4 ± 0.25
C=CCn1c(=O)c2cnc(Nc3ccc(N4CCN(C)CC4)cc3)nc2n1-c1cccc(C(C)(C)O)n1 [adavosertib]	1.92 ± 0.36

same assay, conditions: 0.005 µM; days in culture: 111

Structure (SMILES)	CTG-3D luminescence at 96 h
COc1cc2c(Oc3ccc4[nH]c(C)cc4c3F)ncnc2cc1OCCCN1CCCC1 [cediranib]	1.27
CC(C)n1nc(-c2ccc3oc(N)nc3c2)c2c(N)ncnc21 [sapanisertib]	1.1
Cc1cc(Nc2ncnc3ccc(NC4=NC(C)(C)CO4)cc23)ccc1Oc1ccn2ncnc2c1 [tucatinib]	1.06
C[C@H](NC(=O)CCC(F)(F)F)C(=O)N[C@@H]1C(=O)N(CCO)c2ncccc2-c2ccccc21 [crenigacestat]	1.17
C[C@]12CC[C@@H]3c4ccc(O)cc4C[C@@H](CCCCCCCCC[S+]([O-])CCCC(F)(F)C(F)(F)F)[C@H]3[C@@H]1CC[C@@H]2O (some centres not stated) [fulvestrant]	1.4
O=C(c1ccc(F)c(F)c1Nc1ccc(I)cc1F)N1CC(O)([C@@H]2CCCCN2)C1 [cobimetinib]	1.15
O=C(/C=C/c1cccnc1)NCCCCC1CCN(C(=O)c2ccccc2)CC1 [FK866]	0.244
CS(=O)(=O)c1ccc(C(=O)Nc2ccc(Cl)c(-c3ccccn3)c2)c(Cl)c1 [vismodegib]	1.41
C=CCn1c(=O)c2cnc(Nc3ccc(N4CCN(C)CC4)cc3)nc2n1-c1cccc(C(C)(C)O)n1 [adavosertib]	1.18

same assay, conditions: 0.005 µM; days in culture: 128

Structure (SMILES)	CTG-3D luminescence at 96 h
COc1cc2c(Oc3ccc4[nH]c(C)cc4c3F)ncnc2cc1OCCCN1CCCC1 [cediranib]	1.06 ± 0.084
CC(C)n1nc(-c2ccc3oc(N)nc3c2)c2c(N)ncnc21 [sapanisertib]	0.963 ± 0.052
Cc1cc(Nc2ncnc3ccc(NC4=NC(C)(C)CO4)cc23)ccc1Oc1ccn2ncnc2c1 [tucatinib]	1.59 ± 0.35
C[C@H](NC(=O)CCC(F)(F)F)C(=O)N[C@@H]1C(=O)N(CCO)c2ncccc2-c2ccccc21 [crenigacestat]	1.31 ± 0.068
C[C@]12CC[C@@H]3c4ccc(O)cc4C[C@@H](CCCCCCCCC[S+]([O-])CCCC(F)(F)C(F)(F)F)[C@H]3[C@@H]1CC[C@@H]2O (some centres not stated) [fulvestrant]	1.6 ± 0.056
O=C(c1ccc(F)c(F)c1Nc1ccc(I)cc1F)N1CC(O)([C@@H]2CCCCN2)C1 [cobimetinib]	1.83 ± 0.48
O=C(/C=C/c1cccnc1)NCCCCC1CCN(C(=O)c2ccccc2)CC1 [FK866]	0.315 ± 0.02
CS(=O)(=O)c1ccc(C(=O)Nc2ccc(Cl)c(-c3ccccn3)c2)c(Cl)c1 [vismodegib]	1.39 ± 0.23
C=CCn1c(=O)c2cnc(Nc3ccc(N4CCN(C)CC4)cc3)nc2n1-c1cccc(C(C)(C)O)n1 [adavosertib]	1.34 ± 0.2

same assay, conditions: 0.1 µM; days in culture: 111

Structure (SMILES)	CTG-3D luminescence at 96 h
COc1cc2c(Oc3ccc4[nH]c(C)cc4c3F)ncnc2cc1OCCCN1CCCC1 [cediranib]	1.19
CC(C)n1nc(-c2ccc3oc(N)nc3c2)c2c(N)ncnc21 [sapanisertib]	0.701
Cc1cc(Nc2ncnc3ccc(NC4=NC(C)(C)CO4)cc23)ccc1Oc1ccn2ncnc2c1 [tucatinib]	1.2
C[C@H](NC(=O)CCC(F)(F)F)C(=O)N[C@@H]1C(=O)N(CCO)c2ncccc2-c2ccccc21 [crenigacestat]	0.954
C[C@]12CC[C@@H]3c4ccc(O)cc4C[C@@H](CCCCCCCCC[S+]([O-])CCCC(F)(F)C(F)(F)F)[C@H]3[C@@H]1CC[C@@H]2O (some centres not stated) [fulvestrant]	1.27
O=C(c1ccc(F)c(F)c1Nc1ccc(I)cc1F)N1CC(O)([C@@H]2CCCCN2)C1 [cobimetinib]	1.13
O=C(/C=C/c1cccnc1)NCCCCC1CCN(C(=O)c2ccccc2)CC1 [FK866]	0.0924
CS(=O)(=O)c1ccc(C(=O)Nc2ccc(Cl)c(-c3ccccn3)c2)c(Cl)c1 [vismodegib]	1.48
C=CCn1c(=O)c2cnc(Nc3ccc(N4CCN(C)CC4)cc3)nc2n1-c1cccc(C(C)(C)O)n1 [adavosertib]	1.1

same assay, conditions: 0.1 µM; days in culture: 128

Structure (SMILES)	CTG-3D luminescence at 96 h
COc1cc2c(Oc3ccc4[nH]c(C)cc4c3F)ncnc2cc1OCCCN1CCCC1 [cediranib]	1.52 ± 0.15
CC(C)n1nc(-c2ccc3oc(N)nc3c2)c2c(N)ncnc21 [sapanisertib]	0.727 ± 0.098
Cc1cc(Nc2ncnc3ccc(NC4=NC(C)(C)CO4)cc23)ccc1Oc1ccn2ncnc2c1 [tucatinib]	2.03 ± 0.1
C[C@H](NC(=O)CCC(F)(F)F)C(=O)N[C@@H]1C(=O)N(CCO)c2ncccc2-c2ccccc21 [crenigacestat]	1.51 ± 0.061
C[C@]12CC[C@@H]3c4ccc(O)cc4C[C@@H](CCCCCCCCC[S+]([O-])CCCC(F)(F)C(F)(F)F)[C@H]3[C@@H]1CC[C@@H]2O (some centres not stated) [fulvestrant]	2.08 ± 0.58
O=C(c1ccc(F)c(F)c1Nc1ccc(I)cc1F)N1CC(O)([C@@H]2CCCCN2)C1 [cobimetinib]	1.63 ± 0.14
O=C(/C=C/c1cccnc1)NCCCCC1CCN(C(=O)c2ccccc2)CC1 [FK866]	0.153 ± 0.032
CS(=O)(=O)c1ccc(C(=O)Nc2ccc(Cl)c(-c3ccccn3)c2)c(Cl)c1 [vismodegib]	1.46 ± 0.69
C=CCn1c(=O)c2cnc(Nc3ccc(N4CCN(C)CC4)cc3)nc2n1-c1cccc(C(C)(C)O)n1 [adavosertib]	1.47 ± 0.25
